# Measurements reported in patent US20230174484A1, “ANTAGONISTS OF GPR39 PROTEIN” (Oregon Health & Science University, priority 2020, published 2023).
# Biological target: T1, human GPR39 receptor (Homo sapiens, UniProt O43194)
# T1 construct: PC3 Cells, Expressing the Endogenous Human GPR39 Receptor; endogenous in cells; host or cells: PC3 (human prostate adenocarcinoma) cells
# T1 sequence (O43194 1-453): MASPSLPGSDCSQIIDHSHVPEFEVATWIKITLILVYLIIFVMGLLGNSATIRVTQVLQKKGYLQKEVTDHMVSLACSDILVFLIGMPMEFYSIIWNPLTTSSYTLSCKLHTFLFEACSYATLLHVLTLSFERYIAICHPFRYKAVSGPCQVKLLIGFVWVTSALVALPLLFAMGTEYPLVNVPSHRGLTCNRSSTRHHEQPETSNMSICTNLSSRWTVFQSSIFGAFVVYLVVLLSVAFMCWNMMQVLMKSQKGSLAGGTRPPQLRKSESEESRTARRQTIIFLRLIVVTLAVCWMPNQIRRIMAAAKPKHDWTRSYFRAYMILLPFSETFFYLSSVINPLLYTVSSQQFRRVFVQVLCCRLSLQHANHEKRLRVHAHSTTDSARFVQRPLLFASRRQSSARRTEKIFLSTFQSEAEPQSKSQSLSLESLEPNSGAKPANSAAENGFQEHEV
# Assay: Measurement of intracellular calcium response in PC3 cells (FLIPR), antagonism of the C3 agonist response
# Type: cell-based
# Settings: functional pKi (modified Cheng-Prusoff), inhibition of the C3 (TC-G 1008) response at EC90, 30 μM ZnCl2, read-out: fpKi activity
# How it was run: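 PC3 cells with endogenous human GPR39 were loaded with Calcium-6 and read by FLIPR, with compounds tested in buffer with 30 μM final ZnCl2 and 0.32% DMSO. Peak Ca2+ signal was scored as % inhibition of the EC90 C3 response, fitted by four-parameter logistic. Functional pKi was derived via the modified Cheng-Prusoff equation.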
row,Compound,Ki [nM]
1,"O=C(NCc1ccccn1)c1ccc(NC(=O)C2CC2)cc1N1CCCCCC1 [Example 42, 2-(azepan-1-yl)-4-cyclopropaneamido-N-[(pyridin-2-yl)methyl]benzamide]",316 to 1000
2,"CCCN1CCN(C(=O)c2ccc(NC(=O)C3CC3)cc2-c2ccccn2)CC1 [Example 11, N-(4-(4-propylpiperazine-1-carbonyl)-3-(pyridin-2-yl)phenyl)cyclopropanecarboxamide]",316 to 1000
3,"CN1CCN(C(=O)c2ccc(NC(=O)C3CC3)cc2N2CCCC2)C(c2cnn(C)c2)C1 (racemic) [Example 87, N-[4-[4-methyl-2-(1-methylpyrazol-4-yl)piperazine-1-carbonyl]-3-pyrrolidin-1-ylphenyl]Cyclopropanecarboxamide]",316 to 1000
4,"O=C(Nc1ccc(C(=O)N2CCN(C3CCCC3)CC2)c(N2CCCCCC2)c1)C1CC1 [Example 53, N-[3-(azepan-1-yl)-4-(4-cyclopentylpiperazine-1-carbonyl)phenyl]cyclopropanecarboxamide]",316 to 1000
5,"COc1ccccc1CN1CCN(C(=O)c2ccc(NC(=O)C3CC3)cc2N2CCCCCC2)CC1 [Example 27, N-(3-(azepan-1-yl)-4-(4-(2-methoxybenzyl)piperazine-1-carbonyl)phenyl) cyclopropanecarboxamide]",316 to 1000
6,"CN1CCN(C(=O)c2ccc(NC(=O)C3CC3)cc2N2CCCC2)C(c2cccc(F)c2)C1 (single isomer, unassigned) [Example 88b, N-[4-[2-(3-fluorophenyl)-4-methylpiperazine-1-carbonyl]-3-pyrrolidin-1-ylphenyl]cyclopropanecarboxamide]",1260 to 6310
7,"CC1CN(C(=O)c2ccc(NC(=O)C3CC3)cc2N2CCCCCC2)CCN1C (centres unmarked) [Example 55, N-[3-(azepan-1-yl)-4-(3,4-dimethylpiperazine-1-carbonyl)phenyl]cyclopropanecarboxamide]",316 to 1000
8,"CCCN1CCN(C(=O)c2ccc(NC(=O)C3CC3)cc2N2CCCC3(COC3)C2)CC1 [Example 6, N-(4-(4-propylpiperazine-1-carbonyl)-3-(2-oxa-6-azaspiro[3.5]nonan-6-yl)phenyl)cyclopropane carboxamide]",1260 to 6310
9,"CN(C)CCSc1nnc(-c2ccc(NC(=O)C3CC3)cc2N2CCCCCC2)n1C [Example 111, N-[3-(azepan-1-yl)-4-[5-[2-(dimethylamino)ethylsulfanyl]-4-methyl-1,2,4-triazol-3-yl]phenyl]Cyclopropanecarboxamide]",1260 to 6310
10,"CCCN1CCN(C(=O)c2ccc(-c3nnc(C4CC4)[nH]3)cc2N2CCCCCC2)CC1 [Example 118, [2-(azepan-1-yl)-4-(5-cyclopropyl-4H-1,2,4-triazol-3-yl)phenyl]-(4-propylpiperazin-1-yl)methanone]",316 to 1000
11,"CCCN1CCN(C(=O)c2ccc(NC(=O)C3CCC3)cc2N2CCCCCC2)CC1 [Example 90, N-(3-(azepan-1-yl)-4-(4-propylpiperazine-1-carbonyl)phenyl)cyclobutanecarboxamide]",1260 to 6310
12,"CC1CCN(c2cc(NC(=O)C3CC3)ccc2C(=O)N2CCN(C)CC2c2ccccc2)C1 (single isomer, unassigned) [Example 64b, (2S, 3R) or (2R, 3S) or (2R, 3R) or (2S, 3S) N-[4-(4-methyl-2-phenylpiperazine-1-carbonyl)-3-(3-methylpyrrolidin-1-yl)phenyl] cyclopropanecarboxamide]",1260 to 6310
13,"CCCN1CCN(C(=O)c2ccc(NC(=O)C3CC3)cc2-n2ccc(C)c2)CC1 [Example 9, N-[3-(3-methylpyrrol-1-yl)-4-(4-propylpiperazine-1-carbonyl)phenyl] Cyclopropanecarboxamide]",1260 to 6310
14,"CN1CCN(C(=O)c2ccc(NC(=O)C3CC3)cc2N2CCCCCC2)C(CO)C1 (centres unmarked) [Example 77, N-[3-(azepan-1-yl)-4-[2-(hydroxymethyl)-4-methylpiperazine-1-carbonyl]phenyl]cyclopropanecarboxamide]",1260 to 6310
15,"CN1CCN(C(=O)c2ccc(NC(=O)C3CC3)cc2N2CCCCCC2)C(C(F)(F)F)C1 (centres unmarked) [Example 75, N-[3-(azepan-1-yl)-4-[4-methyl-2-(trifluoromethyl)piperazine-1-carbonyl]phenyl]Cyclopropanecarboxamide]",316 to 1000
16,"O=C(Nc1ccc(C(=O)N2CCN(Cc3ccc(F)cc3)CC2)c(N2CCCCCC2)c1)C1CC1 [Example 29, N-(3-(azepan-1-yl)-4-(4-(4-fluorobenzyl)piperazine-1-carbonyl)phenyl) Cyclopropanecarboxamide]",63.1 to 251
17,"CC1CC(C)CN(c2cc(NC(=O)C3CC3)ccc2-c2nnc(Sc3ccccc3)n2CCN(C)C)C1 (centres unmarked) [Example 115, N-[4-[4-[2-(dimethylamino)ethyl]-5-phenylsulfanyl-1,2,4-triazol-3-yl]-3-(3,5-dimethylpiperidin-1-yl)phenyl]cyclopropanecarboxamide]",316 to 1000
18,"CN1CCN(C(=O)c2ccc(NC(=O)C3CC3)cc2N2CCCC2)C(c2ccccc2F)C1 (single isomer, unassigned) [Example 84b, N-[4-[2-(2-fluorophenyl)-4-methylpiperazine-1-carbonyl]-3-pyrrolidin-1-ylphenyl]cyclopropanecarboxamide]",1260 to 6310
19,"Cc1nnc(-c2ccc(NC(=O)C3CC3)cc2N2CCCCCC2)n1C [Example 113, N-[3-(azepan-1-yl)-4-(4,5-dimethyl-1,2,4-triazol-3-yl)phenyl]cyclopropanecarboxamide]",1260 to 6310

# Second part, the compound after the results:
row,Ki [nM],Compound
1,63.1 to 251,"O=C(Nc1ccc(C(=O)N2CCN(c3ccccc3)CC2)c(N2CCCCCC2)c1)C1CC1 [Example 52, N-(3-(azepan-1-yl)-4-(4-phenylpiperazine-1-carbonyl)phenyl)cyclopropanecarboxamide]"
2,63.1 to 251,"CN1CCN(C(=O)c2ccc(NC(=O)C3CC3)nc2N2CCC(F)(F)CC2)C(c2ccccc2)C1 (racemic) [Example 146, N-[6-(4,4-difluoropiperidin-1-yl)-5-(4-methyl-2-phenylpiperazine-1-carbonyl)pyridin-2-yl]cyclopropanecarboxamide]"
3,63.1 to 251,CN1CCN(C(=O)c2ccc(NC(=O)C3CC3)nc2N2CC3CC3C2)C(c2ccccc2)C1 (racemic) [Example 145]
4,63.1 to 251,"CN1CCN(C(=O)c2ccc(NC(=O)C3CC3)cc2N2CCCCCC2)CC1 [Example 49, N-(3-(azepan-1-yl)-4-(4-methylpiperazine-1-carbonyl)phenyl)cyclopropanecarboxamide]"
5,≤ 50.1,"CN1CCN(C(=O)c2ccc(NC(=O)C3CC3)cc2N2CCCC2)C(c2cccc(Cl)c2)C1 (racemic) [Example 171c, N-[4-[2-(3-chlorophenyl)-4-methylpiperazine-1-carbonyl]-3-pyrrolidin-1-ylphenyl]cyclopropanecarboxamide]"
6,≤ 50.1,"C[C@@H]1C[C@H](C)CN(c2cc(NC(=O)C3CC3)ccc2C(=O)N2CCS(=O)(=O)CC2)C1 [Example 67, Syn N-[3-[-3,5-dimethylpiperidin-1-yl]-4-(1,1-dioxo-1,4-thiazinane-4-carbonyl)phenyl]Cyclopropanecarboxamide]"
7,63.1 to 251,"O=C(Nc1ccc(C(=O)N2CCn3cccc3C2)c(N2CCCCCC2)c1)C1CC1 [Example 39, N-(3-(azepan-1-yl)-4-(1,2,3,4-tetrahydropyrrolo[1,2-a]pyrazine-2-carbonyl)phenyl) cyclopropane carboxamide]"
8,≤ 50.1,"CN1CCN(C(=O)c2ccc(NC(=O)C3CC3)cc2N2CCCCCC2)C(c2ccsc2)C1 (single isomer, unassigned) [Example 70b, N-(3-(azepan-1-yl)-4-(4-methyl-2-(thiophen-3-yl)piperazine-1-carbonyl)phenyl)cyclopropane carboxamide]"
9,≤ 50.1,"O=C(Nc1ccc(C(=O)N2CCC(C(F)(F)F)CC2)c(N2CCCC2)n1)C1CC1 [Example 107, N-[6-pyrrolidin-1-yl-5-[4-(trifluoromethyl)piperidine-1-carbonyl]pyridin-2-yl]Cyclopropanecarboxamide]"
10,63.1 to 251,"CC1CC(C)CN(c2cc(NC(=O)C3CC3)ccc2C(=O)N2CCN(C)CC2c2ccccc2)C1 (single isomer, unassigned) [Example 68d, Anti N-[3-[3,5-dimethylpiperidin-1-yl]-4-(4-methyl-2-phenylpiperazine-1-carbonyl)phenyl]cyclopropanecarboxamide]"
11,63.1 to 251,"O=C(Nc1ccc(C(=O)N2CCS(=O)(=O)CC2)c(N2CCC(F)(F)C2)c1)C1CC1 [Example 184, N-[3-(3,3-difluoropyrrolidin-1-yl)-4-(1,1-dioxo-1,4-thiazinane-4-carbonyl)phenyl]cyclopropanecarboxamide]"
12,63.1 to 251,"CCCN1CCN(C(=O)c2ccc(NC(=O)C3CC3)cc2-n2ccc(C)n2)CC1 [Example 8, N-(3-(3-methyl-1H-pyrazol-1-yl)-4-(4-propylpiperazine-1-carbonyl)phenyl)cyclopropanecarboxamide]"
13,≤ 50.1,"CN1CCN(C(=O)c2ccc(NC(=O)C3CC3)cc2N2CCCC2)C(c2cccs2)C1 (racemic) [Example 86c, N-[4-(4-methyl-2-thiophen-2-ylpiperazine-1-carbonyl)-3-pyrrolidin-1-ylphenyl]cyclopropanecarboxamide]"
